# Several values for one entry are separate records, joined by “and”; a condition that tells them apart may be missing. Equal entries are not always repeated. Where two headings read alike, the source gives them in different places.
# Assays:
# Format in all cases: cell-based
# thyme clonal line T-12 = experiment: RA content of shoot propagules, thyme clonal line T-12; settings: 30 to 45 days, ± SD
# Procedure: (§1) Samples of Pseudomonas-treated and untreated control shoots from each line were assayed for rosmarinic acid content and proline content. Rosmarinic acid was extracted from 50 mg of fresh shoot tissue using 2 ml of 50% (v/v) methanol and incubating for 1 hour at 55° C. One ml of the methanol extract was diluted 1:18 and the absorbance of the diluted extract was measured at 333 nm in a Genesys spectrophotometer (Spectronic Instruments, Rochester, N.Y.). The concentration of RA in the extract was calculated using an extinction coefficient of ε333=19,000 τmol^−1cm^−1. Values for the concentration of RA for each treatment/clonal line shown in the Tables and Figures of this application are the average of at least 5 separate extracts. Total rosmarinic acid content was expressed as % g/g fresh weight (FW) of tissue.
# (§2) Three clonal thyme lines and five rosemary clonal lines were isolated and maintained in culture as described in U.S. application Ser. No. 08/771,241, filed Dec. 20, 1996 and incorporated herein by reference.
# (§3) Individual shoot propagules of each clonal line were transferred to half-strength hormone-free MS media supplemented with A2C and cultured for 30 to 45 days. RA content and morphological abnormalities were determined at the end of the culture period as described in Example 1.
# [1] = test system: rosemary clonal line R-16; experiment: RA content of shoot propagules, rosemary clonal line R-16; settings: 30 to 45 days
# Procedure: as §1, §2, §3
# rosemary clonal line R-1 = experiment: Morphological abnormalities / tolerance of cultured shoots, rosemary line R-1; settings: rosemary line R-1, 200 μM A2C
# Procedure: (§4) Pseudomonas tolerance of Pseudomonas-treated shoots was determined by visual observation with a stereomicroscope (Olympus-SZ40, Tokyo, Japan) at a magnification of 34X. Cultured shoots were evaluated for morphological abnormalities, including malformation, necrosis, and chlorophyll deficiency. The response of individual tissue propagules to Pseudomonas contact was similar within each line, i.e., there was little or no variation among tissue propagules within each line.
# as §3
# oregano clonal line 0-5 [2] = settings: for RA Levels: 30 days (Example 3)
# Procedure: (§5) A mucoid, non-pathogenic Pseudomonas sp. strain was isolated as a contaminant of an oregano shoot culture. This Pseudomonas sp. was termed strain F. This strain was used in selecting Pseudomonas tolerant clonal lines. Strain F was grown on yeast extract-mannitol medium (Difco, Inc., Detroit, Mich.) until the inoculum density was about 10^9 colony forming units/mL. The bacterial suspension was diluted 100-fold in sterile distilled water and about 2.5 ml was dispensed into petri plates. Individual shoots of each clonal line at about 30 days of subculture were removed by cutting at the basal end and then inoculated by dipping the cut end into the diluted bacterial suspension. Inoculated shoots were then transferred to half-strength hormone-free MS medium, which induces root formation, and incubated in a growth room at 23° C., on a 16/8 hours day/night schedule. About 40 shoots of each clone were inoculated. Control shoots of each clonal line were transferred to the same medium, but were not exposed to bacteria.
# as §1
# (§6) Individual shoot tissue propagules of each clonal line were transferred to half strength hormone-free MS medium supplemented with 100 μM A2C. RA content, proline content, and morphological abnormalities were determined as described in Example 1.
# (§7) Shoot tissue from oregano lines 0-4 and 0-5 was also cultured in the presence of A2C for 30 days. Samples of treated and control shoots were then assayed for RA content on a fresh weight basis and for morphological abnormalities.
# (§8) Individual shoot tissue propagules of each clonal line were transferred to half strength hormone-free MS medium supplement with A2C. RA content and morphological abnormalities were determined as described in Example 1.
# oregano clonal line 0-4 = settings: ± SD; for RA Levels: 30 days (Example 3)
# Procedure: as §5, §1, §6, §7, §8
# [3] = test system: rosemary clonal line R-15; experiment: RA content of shoot propagules, rosemary clonal line R-15; settings: 30 to 45 days
# Procedure: as §1, §2, §3
# oregano clonal line 0-5 [4] = experiment: Morphological abnormalities / tolerance of cultured shoots, oregano line 0-5; settings: line 0-5, 200 μM A2C
# Procedure: as §4, §7, §8
# thyme clonal line T-16G = experiment: RA content of shoot propagules, thyme clonal line T-16G; settings: thyme T-16G, 30 to 45 days, ± SD
# Procedure: as §1, §2, §3
# oregano clonal lines = experiment: Selection for A2C tolerance: RA content of about 100 oregano clonal lines; settings: small fraction of about 100 oregano lines, 200 μM A2C, 30 days
# Procedure: as §1
# About 100 oregano clonal lines are initiated as described in Example 1. Lines are maintained on MS medium containing BAP as described in Example 1. At the end of a subculture cycle, 50 shoot propagules of each clonal line are transferred to half-strength hormone-free MS medium containing 200 μM A2C. Propagules are then cultured for 30 days as described in Example 1, and assayed for RA content as described in Example 1. Total phenolic content is measured as described in U.S. application Ser. No. 08/771,241, filed Dec. 20, 1996, incorporated herein by reference.
# oregano clonal line OM-8 = experiment: Morphological abnormalities / tolerance of cultured shoots, oregano line OM-8; settings: line OM-8, 200 μM A2C
# Procedure: as §4, §8
# thyme clonal line M-3 = experiment: Morphological abnormalities / tolerance of cultured shoots, thyme line M-3; settings: thyme line M-3, 200 μM A2C
# Procedure: as §4, §3
compound,measurement,setting,value
"O=C(O)C1CCN1 (stereo not shown) [A2C, azetidine-2-carboxylic acid]",RA Levels,"thyme clonal line T-12; thyme T-12, A2C 100 μM",4.1 ± 0.5 mg/g FW
same,RA Levels,"thyme clonal line T-12; thyme T-12, A2C 200 μM",5.1 ± 0.5 mg/g FW
same,RA Levels,"[1]; rosemary R-16, A2C 100 μM, ± SD",10.4 ± 1.9 mg/g FW
same,RA Levels,"[1]; rosemary R-16, A2C 200 μM",inhibited
same,survival of line in culture,rosemary clonal line R-1,killed
same,RA,"oregano clonal line 0-5 [2]; line 0-5, 100 μM A2C, 30 days, remaining tissue portions (primarily shoot tips) (Example 2), ± SD",3.2 mg/g FW and 3.2 ± 0.4 mg/g FW
same,RA Levels,"oregano clonal line 0-5 [2]; line 0-5, A2C 100 μM, ± SD",3.1 ± 0.5 mg/g FW
same,RA Levels,"oregano clonal line 0-5 [2]; line 0-5, A2C 200 μM",inhibited
same,RA,"oregano clonal line 0-4; line 0-4, 100 μM A2C, day 30 (Example 2)",4.3 mg/g FW and 4.3 ± 0.7 mg/g FW
same,RA Levels,"oregano clonal line 0-4; line 0-4, A2C 100 μM",6.4 ± 0.8 mg/g FW
same,RA Levels,"oregano clonal line 0-4; line 0-4, A2C 200 μM",6.8 ± 0.7 mg/g FW
same,RA Levels,"[3]; rosemary R-15, A2C 100 μM, ± SD",9.4 ± 0.6 mg/g FW
same,RA Levels,"[3]; rosemary R-15, A2C 200 μM",inhibited
same,survival of line in culture,oregano clonal line 0-5 [4],killed
same,RA Levels,thyme clonal line T-16G; A2C 100 μM,3.1 ± 0.4 mg/g FW
same,RA Levels,thyme clonal line T-16G; A2C 200 μM,3.7 ± 0.4 mg/g FW
same,increase in RA content on a fresh weight basis vs tissue cultured in the absence of A2C,oregano clonal lines,at least 2 fold
same,survival of line in culture,oregano clonal line OM-8,killed
same,survival of line in culture,thyme clonal line M-3,killed
